Source: patent US20230117034A1, “PYRAZOLOTRIAZINES” (Bayer Aktiengesellschaft, priority 2019, published 2023)

Columns and labels:
CDK12/CycK = CDK12/CycK (Homo sapiens, UniProt Q9NYV4); assay: CDK12/CycK high ATP kinase assay (TR-FRET, 2 mM ATP); assay type: biochemical; conditions: 2 mM ATP (high ATP); median; read-out: CDK12/CyclinK, 2 mM ATP (high ATP), IC50-[mol/l] (median)
Experimental: In the context of the present invention, the term “IC50 CDK12 hATP” refers to the IC50 values obtained according to the assay described in this section (2.2) herein below, i.e. the IC50 values for the inhibition of CDK12 at high (2 mM) ATP.
CDK12/CycK-inhibitory activity of compounds of the present invention at 2 millimol/L adenosine-tri-phosphate (ATP) was quantified employing the TR-FRET (TR-FRET=Time Resolved Fluorescence Energy Transfer) based CDK12/CycK activity inhibition assay as described in the following paragraphs.
A complex of human recombinant CDK12 and human recombinant CycK (both N-terminally His-tagged, expression and purification as described above) was used as enzyme. As substrate for the kinase reaction biotinylated peptide biotin-Ahx-KFELLPTPPLSPSRRSGL (C-terminus in amid form) was used which can be purchased e.g. form the company Biosyntan (Berlin-Buch, Germany).
For the assay 50 nanoL of a 100 fold concentrated solution of the test compound in DMSO was pipetted into either a black low volume 384 well microtiter plate or a black 1536 well microtiter plate (both Greiner Bio-One, Frickenhausen, Germany), 2 microL of a solution of CDK12/CycK in aqueous assay buffer [25 millimol/L HEPES pH 7.5, 20 millimol/L MgCl2, 5 millimol/L β-glycerophosphate, 2 millimol/L EGTA, 1.0 millimol/L dithiothreitol, 0.01% (v/v) Nonidet-P40 (Sigma), 0.01% (w/v) bovine serum albumin] were added and the mixture was incubated for 15 min at 22° C. to allow pre-binding of the test compounds to the enzyme before the start of the kinase reaction. Then the kinase reaction was started by the addition of 3 microL of a solution ATP (3.33 millimol/L=>final conc. in the 5 microL assay volume is 2 millimol/L) and substrate (1.67 micromol/L=>final conc. in the 5 microL assay volume is 1 micromol/L) in assay buffer and the resulting mixture was incubated for a reaction time of 60 min at 22° C. The concentration of CDK12/CycK was adjusted depending of the activity of the enzyme lot and was chosen appropriate to have the assay in the linear range, typical concentrations were about 0.75 nanomol/L. The reaction was stopped by the addition of 3 microL of a solution of TR-FRET detection reagents (125 nanomol/L streptavidine-XL665 [Cisbio Bioassays, Codolet, France] and 0.67 nanomol/L anti-Phospho-c-Myc (Ser 62) (E1J4K)-antibody from Cell Signalling [#13748] and 2 nanomol/L LANCE EU-W1024 labeled anti-rabbit IgG antibody [Perkin-Elmer, product no. 0083]) in an aqueous EDTA-solution (133 millimol/L EDTA, 0.27% (w/v) bovine serum albumin in 66.7 millimol/L HEPES pH 7.5).
The resulting mixture was incubated 1 h at 22° C. to allow the formation of complex between the phosphorylated biotinylated peptide and the detection reagents. Subsequently the amount of phosphorylated substrate was evaluated by measurement of the resonance energy transfer from the Eu-chelate to the streptavidine-XL. Therefore, the fluorescence emissions at 620 nm and 665 nm after excitation at 350 nm was measured in a TR-FRET reader, e.g. a Pherastar FS (BMG Labtechnologies, Offenburg, Germany) or a Viewlux (Perkin-Elmer). The ratio of the emissions at 665 nm and at […] was taken as the measure for the amount of phosphorylated substrate. The data were normalised (enzyme reaction without inhibitor=0% inhibition, all other assay components but no enzyme=100% inhibition).

[1] = tested on: CAL-120, human breast adenocarcinoma cells; assay: Proliferation assay CAL-120 (crystal violet, 4 days); assay type: cell-based; conditions: Homo sapiens, CAL-120, 96 h, CAL-120 cells, median, read-out: Prolif-CAL-120, IC50-[mol/l] (median)
Experimental: Human tumour cells were originally obtained from the American Type Culture Collection (ATCC), or from the Deutsche Sammlung von Mikroorganismen und Zellkulturen (DSMZ, German Collection of Microorganisms and Cell Cultures). Cultivated tumour cells (CAL-120, human breast adenocarcinoma cells, DSMZ ACC-459; MDA-MB-231, human breast cancer cells, ATCC HTB-26) were plated at a density of 4,000 cells/well in a 96-well multititer plate in 200 microL of their respective growth medium supplemented 10% fetal calf serum. After 24 hours, the cells of one plate (zero-point plate) were stained with crystal violet (see below), while the medium of the other plates was supplemented with the test substances in various concentrations (0 micromol/L, as well as in the range of 0.01-10 micromol/L; the final concentration of the solvent dimethyl sulfoxide was adjusted to 0.1%) using a Tecan HP D300 Digital Dispenser. The cells were incubated for 4 days in the presence of test substances. Cell proliferation was determined by staining the cells with crystal violet: the cells were fixed by adding 20 microL/measuring point of an 11% glutaric aldehyde solution for 15 minutes at room temperature. After three washing cycles of the fixed cells with water, the plates were dried at room temperature. The cells were stained by adding 100 microL/measuring point of a 0.1% crystal violet solution (pH 3.0). After three washing cycles of the stained cells with water, the plates were dried at room temperature. The dye was dissolved by adding 100 microL/measuring point of a 10% acetic acid solution. The extinction was determined by photometry at a wavelength of 595 nm. The change of cell number, in percent, was calculated by normalization of the measured values to the extinction values of the zero-point plate (=0%) and the extinction of the untreated (0 μM) cells (=100%). The IC50 values (inhibitory concentration at 50% of maximal effect) were determined by means of a 4 parameter fit.

[2] = target: T1, CYCLIN K (nuclear staining in CAL-120 cells) (Homo sapiens, UniProt O75909); assay: CYCLIN K nuclear protein level: immunofluorescence high content analysis (CAL-120); assay type: cell-based; conditions: 24 h, 50% reduction of nuclear CCNK staining intensity, median, read-out: CYCLIN K degradation IF, DC50-[mol/l] (median)
T1 construct: endogenous in cells; host or cells: CAL-120 human breast cancer cells (DSMZ ACC 459)
T1 sequence (O75909 whole entry): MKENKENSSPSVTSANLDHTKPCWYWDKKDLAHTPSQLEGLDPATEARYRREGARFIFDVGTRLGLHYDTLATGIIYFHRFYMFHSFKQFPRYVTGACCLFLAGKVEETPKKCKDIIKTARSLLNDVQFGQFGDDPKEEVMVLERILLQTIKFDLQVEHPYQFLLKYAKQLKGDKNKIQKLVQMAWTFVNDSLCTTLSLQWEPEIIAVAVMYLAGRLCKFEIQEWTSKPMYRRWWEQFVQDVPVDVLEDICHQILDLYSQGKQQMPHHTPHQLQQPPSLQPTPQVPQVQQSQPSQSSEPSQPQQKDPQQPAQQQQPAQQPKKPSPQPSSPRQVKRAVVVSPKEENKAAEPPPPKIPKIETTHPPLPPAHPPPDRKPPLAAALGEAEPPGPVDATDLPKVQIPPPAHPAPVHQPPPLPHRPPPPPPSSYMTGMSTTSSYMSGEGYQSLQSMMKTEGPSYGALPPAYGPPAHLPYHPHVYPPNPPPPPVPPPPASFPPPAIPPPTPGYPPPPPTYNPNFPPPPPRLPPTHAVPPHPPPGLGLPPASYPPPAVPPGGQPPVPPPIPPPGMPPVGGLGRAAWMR
T1 sequence (Q9NYV4 whole entry partner): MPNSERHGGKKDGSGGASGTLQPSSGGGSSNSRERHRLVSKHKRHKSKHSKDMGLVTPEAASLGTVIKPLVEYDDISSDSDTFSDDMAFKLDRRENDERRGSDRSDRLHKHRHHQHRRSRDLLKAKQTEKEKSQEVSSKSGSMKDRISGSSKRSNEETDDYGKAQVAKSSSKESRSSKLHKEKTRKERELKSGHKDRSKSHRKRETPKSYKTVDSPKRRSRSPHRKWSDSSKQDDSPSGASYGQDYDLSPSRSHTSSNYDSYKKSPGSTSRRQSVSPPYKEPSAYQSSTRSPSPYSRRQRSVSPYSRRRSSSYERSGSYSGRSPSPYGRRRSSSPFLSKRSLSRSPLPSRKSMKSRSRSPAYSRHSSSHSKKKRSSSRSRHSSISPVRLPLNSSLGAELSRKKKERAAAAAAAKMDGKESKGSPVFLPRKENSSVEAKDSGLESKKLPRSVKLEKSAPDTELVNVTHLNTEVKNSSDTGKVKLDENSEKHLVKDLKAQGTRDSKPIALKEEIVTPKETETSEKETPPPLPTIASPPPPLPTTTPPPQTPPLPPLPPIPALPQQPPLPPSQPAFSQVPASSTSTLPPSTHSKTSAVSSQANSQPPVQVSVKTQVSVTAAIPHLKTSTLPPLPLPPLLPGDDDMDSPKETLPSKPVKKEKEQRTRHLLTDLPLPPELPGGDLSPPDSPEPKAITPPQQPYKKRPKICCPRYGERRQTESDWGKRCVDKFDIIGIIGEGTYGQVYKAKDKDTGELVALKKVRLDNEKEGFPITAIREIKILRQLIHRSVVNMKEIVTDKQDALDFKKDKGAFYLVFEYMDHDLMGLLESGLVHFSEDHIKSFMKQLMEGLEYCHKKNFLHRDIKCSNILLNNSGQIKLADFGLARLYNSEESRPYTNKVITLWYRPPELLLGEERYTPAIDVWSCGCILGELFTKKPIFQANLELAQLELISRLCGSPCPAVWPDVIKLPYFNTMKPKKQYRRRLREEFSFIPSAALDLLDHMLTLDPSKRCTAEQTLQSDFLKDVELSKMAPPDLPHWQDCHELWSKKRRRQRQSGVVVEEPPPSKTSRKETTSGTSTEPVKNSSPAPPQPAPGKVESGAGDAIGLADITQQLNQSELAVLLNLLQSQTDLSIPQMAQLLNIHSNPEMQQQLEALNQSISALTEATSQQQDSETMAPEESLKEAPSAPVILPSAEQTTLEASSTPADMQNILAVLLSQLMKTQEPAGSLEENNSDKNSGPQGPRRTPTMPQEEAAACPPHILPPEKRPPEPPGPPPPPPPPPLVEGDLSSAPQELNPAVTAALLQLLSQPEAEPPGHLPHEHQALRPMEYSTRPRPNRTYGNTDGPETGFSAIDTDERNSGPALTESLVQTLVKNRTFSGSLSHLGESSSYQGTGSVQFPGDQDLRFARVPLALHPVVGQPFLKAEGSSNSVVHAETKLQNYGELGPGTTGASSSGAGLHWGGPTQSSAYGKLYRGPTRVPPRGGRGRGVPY
Experimental: 8. CYCLIN K nuclear protein level: immunofluorescence High Content Analysis
CAL-120 human breast cancer cells (DSMZ ACC 459) are seeded in 1536-well microtiter plates (800 cells per well) containing 50 nanoL of compounds in Dose-Response. Control wells received DMSO or Example 4. Plates are then incubated for 24 h at 37° C. in an humidified incubator and fixed with 4% PFA for 10 min. Then immunofluorescence (IF) against CYCLIN K (ThermoFisher Scientific CONK Antibody #PA5-85020, rabbit, 1:200 dilution) is performed using standard IF protocols. Cells are then stained with Hoechst 33342 (Life Technologies, H-1399, 0.1 microg/ml) and imaged on an automated confocal microscopy system (e.g. Perkin Elmer Opera Phenix). Nuclear and cytoplasmic intensity as well as the nuclear/cytoplasmic intensity ratio is determined by automated image analysis using custom generated scripts (MetaXpress). Data is then transferred to Genedata Screener software, normalized to DMSO and control and DC50 values (degrading concentration to achieve 50% reduction of nuclear CCNK staining intensity relative to controls) are reported.

Chain of CDK12/CycK (Q9NYV4 with tags, fused parts or gaps): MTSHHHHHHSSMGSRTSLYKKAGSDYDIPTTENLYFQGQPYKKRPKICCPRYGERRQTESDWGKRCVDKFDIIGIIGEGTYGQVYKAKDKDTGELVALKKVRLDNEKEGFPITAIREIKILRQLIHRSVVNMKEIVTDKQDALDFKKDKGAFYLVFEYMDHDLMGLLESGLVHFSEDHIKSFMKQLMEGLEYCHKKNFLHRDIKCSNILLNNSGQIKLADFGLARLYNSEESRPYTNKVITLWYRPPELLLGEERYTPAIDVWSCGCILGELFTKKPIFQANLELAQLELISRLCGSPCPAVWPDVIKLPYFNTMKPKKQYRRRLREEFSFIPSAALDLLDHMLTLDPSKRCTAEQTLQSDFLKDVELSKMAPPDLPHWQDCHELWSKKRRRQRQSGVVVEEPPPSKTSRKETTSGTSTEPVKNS
Chain of CDK12/CycK (O75909 1-300 partner limits assumed): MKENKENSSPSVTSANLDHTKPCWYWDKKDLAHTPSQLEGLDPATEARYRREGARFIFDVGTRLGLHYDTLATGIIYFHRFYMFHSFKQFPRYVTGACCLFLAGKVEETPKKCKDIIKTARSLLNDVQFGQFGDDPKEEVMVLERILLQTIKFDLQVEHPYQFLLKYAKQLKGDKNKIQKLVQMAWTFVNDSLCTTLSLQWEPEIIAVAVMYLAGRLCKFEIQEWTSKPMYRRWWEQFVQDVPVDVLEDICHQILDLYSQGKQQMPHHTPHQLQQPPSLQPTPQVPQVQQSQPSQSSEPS

| SMILES | IC50 (CDK12/CycK) | IC50 [1] | DC50 [2] |
| --- | --- | --- | --- |
| Fc1cc(F)cc(-c2nnc(CNc3nc(N4CCOCC4)nc4c(Br)cnn34)[nH]2)c1 [Example 105, 8-bromo-N-{[5-(3,5-difluorophenyl)-4H-1,2,4-triazol-3-yl]methyl}-2-(morpholin-4-yl)pyrazolo[1,5-a][1,3,5]triazin-4-amine] | 1070 nM | 7.36 nM | 0.676 nM |
| CN1CCN(c2nc(NCc3nc4cc(F)ccc4[nH]3)n3ncc(Br)c3n2)CC1 [Example 134, 8-bromo-N-[(5-fluoro-1H-benzimidazol-2-yl)methyl]-2-(4-methylpiperazin-1-yl)pyrazolo[1,5-a][1,3,5]triazin-4-amine] | > 17700 nM | 11.6 nM | 0.172 nM |
| Brc1cnn2c(NCc3nc4ccccc4[nH]3)nc(N3CCNCC3)nc12 [Example 128, N-[(1H-benzimidazol-2-yl)methyl]-8-bromo-2-(piperazin-1-yl)pyrazolo[1,5-a][1,3,5]triazin-4-amine] | 10900 nM | 12.7 nM | 0.216 nM |
| CN1CCN(c2nc(NCc3nc4cc(F)ccc4[nH]3)n3ncc(C4CC4)c3n2)CC1 [Example 164, 8-cyclopropyl-N-[(5-fluoro-1H-benzimidazol-2-yl)methyl]-2-(4-methylpiperazin-1-yl)pyrazolo[1,5-a][1,3,5]triazin-4-amine] | > 20000 nM | 4.13 nM | 1.12 nM |
| Cc1cccc2[nH]c(CNc3nc(N4CCN(C)CC4)nc4c(Br)cnn34)nc12 [Example 151, 8-bromo-N-[(4-methyl-1H-benzimidazol-2-yl)methyl]-2-(4-methylpiperazin-1-yl)pyrazolo[1,5-a][1,3,5]triazin-4-amine] | 4240 nM | 24.7 nM | 2.45 nM |
| C[C@@H]1CN(c2nc(NCc3nc4ccccc4[nH]3)n3ncc(Br)c3n2)CCN1C [Example 135, N-[(1H-benzimidazol-2-yl)methyl]-8-bromo-2-[(3R)-3,4-dimethylpiperazin-1-yl]pyrazolo[1,5-a][1,3,5]triazin-4-amine] | 14500 nM | 41.7 nM | 0.554 nM |
| CN1CCN(c2nc(NCc3nc4c(F)c(F)ccc4[nH]3)n3ncc(Br)c3n2)CC1 [Example 133, 8-bromo-N-[(4,5-difluoro-1H-benzimidazol-2-yl)methyl]-2-(4-methylpiperazin-1-yl)pyrazolo[1,5-a][1,3,5]triazin-4-amine] | 7010 nM | 4.41 nM | 0.0633 nM |
| C[C@H]1CN(c2nc(NCc3nnc(-c4cccc(F)c4)[nH]3)n3ncc(Br)c3n2)CCN1C [Example 154, 8-bromo-2-[(3S)-3,4-dimethylpiperazin-1-yl]-N-{[5-(3-fluorophenyl)-4H-1,2,4-triazol-3-yl]methyl}pyrazolo[1,5-a][1,3,5]triazin-4-amine] | 7170 nM | 7.69 nM | 0.713 nM |
| Clc1ccc2[nH]c(CNc3nc(N4CCOCC4)nc4c(Br)cnn34)nc2c1 [Example 162, 8-bromo-N-[(5-chloro-1H-benzimidazol-2-yl)methyl]-2-(morpholin-4-yl)pyrazolo[1,5-a][1,3,5]triazin-4-amine] | 1020 nM | 1.55 nM | 0.112 nM |
| Cc1ccc(-c2nnc(CNc3nc(N4CCOCC4)nc4c(Br)cnn34)[nH]2)cc1F [Example 98, 8-bromo-N-{[5-(3-fluoro-4-methylphenyl)-4H-1,2,4-triazol-3-yl]methyl}-2-(morpholin-4-yl)pyrazolo[1,5-a][1,3,5]triazin-4-amine] | 1080 nM | 116 nM | 28.1 nM |
| C[C@@H]1CN(c2nc(NCc3nnc(-c4ccccc4)[nH]3)n3ncc(Br)c3n2)CCN1C.O=CO [Example 130, 8-bromo-2-[(3R)-3,4-dimethylpiperazin-1-yl]-N-[(5-phenyl-4H-1,2,4-triazol-3-yl)methyl]pyrazolo[1,5-a][1,3,5]triazin-4-amine formate] | 8440 nM | 34.8 nM | 2.01 nM |
| CN1CCN(c2nc(NCc3nc4cc(Cl)ccc4[nH]3)n3ncc(Br)c3n2)CC1 [Example 163, 8-bromo-N-[(5-chloro-1H-benzimidazol-2-yl)methyl]-2-(4-methylpiperazin-1-yl)pyrazolo[1,5-a][1,3,5]triazin-4-amine] | > 5710 nM | 1.05 nM | 0.279 nM |
| Fc1ccc2[nH]c(CNc3nc(N4CCOCC4)nc4c(Br)cnn34)nc2c1 [Example 101, 8-bromo-N-[(5-fluoro-1H-benzimidazol-2-yl)methyl]-2-(morpholin-4-yl)pyrazolo[1,5-a][1,3,5]triazin-4-amine] | 2250 nM | 4.1 nM | 0.892 nM |
| Fc1cccc(-c2nnc(CNc3nc(N4CCNCC4)nc4c(Br)cnn34)[nH]2)c1 [Example 152, 8-bromo-N-{[5-(3-fluorophenyl)-4H-1,2,4-triazol-3-yl]methyl}-2-(piperazin-1-yl)pyrazolo[1,5-a][1,3,5]triazin-4-amine] | 2990 nM | 3.86 nM | 1.11 nM |
| COc1ccc2[nH]c(CNc3nc(N4CCN(C)CC4)nc4c(Br)cnn34)nc2c1 [Example 161, 8-bromo-N-[(5-methoxy-1H-benzimidazol-2-yl)methyl]-2-(4-methylpiperazin-1-yl)pyrazolo[1,5-a][1,3,5]triazin-4-amine] | 9610 nM | 3.3 nM | 1.3 nM |
